Assay results taken from article PMC11794477 (Nature Communications, 2025).

Experiments:
[1] = target: T1, Fetal Liver Tyrosine Kinase 3 (FLT3) (Homo sapiens, UniProt P36888); assay: SelectScreen kinase profiling at ATP Km, with dose-response follow-up; assay type: biochemical
T1 sequence (P36888 27-993): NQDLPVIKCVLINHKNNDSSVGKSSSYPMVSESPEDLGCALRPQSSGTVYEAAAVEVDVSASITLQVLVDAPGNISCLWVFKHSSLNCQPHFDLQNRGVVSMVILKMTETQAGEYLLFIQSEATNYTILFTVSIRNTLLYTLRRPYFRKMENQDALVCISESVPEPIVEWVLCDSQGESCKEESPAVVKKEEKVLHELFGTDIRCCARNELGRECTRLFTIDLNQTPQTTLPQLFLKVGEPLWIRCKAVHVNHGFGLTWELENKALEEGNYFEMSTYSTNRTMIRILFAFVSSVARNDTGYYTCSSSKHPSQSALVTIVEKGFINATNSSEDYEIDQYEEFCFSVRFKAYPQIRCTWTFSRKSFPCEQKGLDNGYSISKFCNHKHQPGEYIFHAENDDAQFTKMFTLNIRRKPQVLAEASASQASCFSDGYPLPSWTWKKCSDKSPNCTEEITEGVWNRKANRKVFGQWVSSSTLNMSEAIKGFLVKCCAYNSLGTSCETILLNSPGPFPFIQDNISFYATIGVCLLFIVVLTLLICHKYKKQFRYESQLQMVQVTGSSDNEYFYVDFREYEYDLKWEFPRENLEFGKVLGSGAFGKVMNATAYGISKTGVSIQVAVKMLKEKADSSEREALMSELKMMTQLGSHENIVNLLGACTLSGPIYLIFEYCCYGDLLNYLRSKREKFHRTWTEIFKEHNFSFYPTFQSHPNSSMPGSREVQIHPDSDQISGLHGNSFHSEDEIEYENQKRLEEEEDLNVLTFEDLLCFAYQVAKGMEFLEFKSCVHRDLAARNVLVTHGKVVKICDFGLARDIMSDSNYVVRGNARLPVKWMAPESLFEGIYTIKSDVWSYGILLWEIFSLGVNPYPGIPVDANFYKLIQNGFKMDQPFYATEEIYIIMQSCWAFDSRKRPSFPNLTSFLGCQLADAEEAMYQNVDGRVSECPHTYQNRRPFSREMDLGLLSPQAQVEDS

[2] = target: T2, Discoidin Domain Receptor Tyrosine Kinase 2 (DDR2 N456S) (Homo sapiens, UniProt Q16832, N456S); assay: SelectScreen kinase profiling at […] CT-179, ATP at Km; assay type: biochemical
T2 sequence (Q16832 22-855 N456S): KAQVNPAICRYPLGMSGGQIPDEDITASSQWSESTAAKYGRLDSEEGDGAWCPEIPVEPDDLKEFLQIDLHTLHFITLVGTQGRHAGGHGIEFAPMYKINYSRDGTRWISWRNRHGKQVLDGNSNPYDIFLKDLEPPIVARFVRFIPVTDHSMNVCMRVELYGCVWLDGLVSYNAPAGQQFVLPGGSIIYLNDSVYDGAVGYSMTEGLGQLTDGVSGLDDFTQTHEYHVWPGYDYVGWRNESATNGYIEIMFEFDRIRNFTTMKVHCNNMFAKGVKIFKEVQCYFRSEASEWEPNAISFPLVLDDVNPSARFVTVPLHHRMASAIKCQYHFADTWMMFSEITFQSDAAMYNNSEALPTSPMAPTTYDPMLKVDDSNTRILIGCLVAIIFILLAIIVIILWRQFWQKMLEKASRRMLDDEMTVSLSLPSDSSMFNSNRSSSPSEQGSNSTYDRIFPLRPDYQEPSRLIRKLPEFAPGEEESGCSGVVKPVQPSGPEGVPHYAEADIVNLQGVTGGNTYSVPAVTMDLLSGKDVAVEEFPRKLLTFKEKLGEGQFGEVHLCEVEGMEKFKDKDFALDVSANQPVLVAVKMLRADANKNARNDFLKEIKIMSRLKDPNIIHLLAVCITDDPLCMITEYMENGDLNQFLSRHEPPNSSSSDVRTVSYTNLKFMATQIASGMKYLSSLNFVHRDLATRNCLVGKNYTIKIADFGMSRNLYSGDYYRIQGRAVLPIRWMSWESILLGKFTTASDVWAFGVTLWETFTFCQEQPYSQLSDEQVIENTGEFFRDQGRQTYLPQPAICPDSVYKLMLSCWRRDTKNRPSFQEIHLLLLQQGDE

OLIG2 = target: T3, OLIG2 (Homo sapiens, UniProt Q13516); assay type: cell-based
T3 sequence (Q13516 1-323): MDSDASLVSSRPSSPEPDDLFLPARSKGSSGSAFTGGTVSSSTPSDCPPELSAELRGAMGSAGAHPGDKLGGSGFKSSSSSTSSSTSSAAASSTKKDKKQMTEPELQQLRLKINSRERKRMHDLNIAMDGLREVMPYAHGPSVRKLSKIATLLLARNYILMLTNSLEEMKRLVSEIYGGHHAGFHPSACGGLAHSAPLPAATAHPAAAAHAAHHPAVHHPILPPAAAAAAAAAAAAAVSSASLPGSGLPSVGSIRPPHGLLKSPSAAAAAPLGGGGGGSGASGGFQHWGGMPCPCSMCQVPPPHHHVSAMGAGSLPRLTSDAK

IC50 [1]: 20 nM
% inhibition at 1 μM [2]: 87
IC50 (OLIG2): 1250 nM
Structure (SMILES): Cc1cc(NCCCN(C)C)nc(NC(=O)Nc2ccc(Cl)c(Cl)c2)n1 [CT-179]
